# Assays:
# RDL receptor (WT) = target: T1, RDL receptor (WT) (Drosophila melanogaster, UniProt P25123); assay: GABA-induced currents, voltage clamp of Xenopus oocytes expressing wild type RDL; format: cell-based; conditions: Hill coefficient, mean ± SEM
# T1 sequence (P25123 45-606): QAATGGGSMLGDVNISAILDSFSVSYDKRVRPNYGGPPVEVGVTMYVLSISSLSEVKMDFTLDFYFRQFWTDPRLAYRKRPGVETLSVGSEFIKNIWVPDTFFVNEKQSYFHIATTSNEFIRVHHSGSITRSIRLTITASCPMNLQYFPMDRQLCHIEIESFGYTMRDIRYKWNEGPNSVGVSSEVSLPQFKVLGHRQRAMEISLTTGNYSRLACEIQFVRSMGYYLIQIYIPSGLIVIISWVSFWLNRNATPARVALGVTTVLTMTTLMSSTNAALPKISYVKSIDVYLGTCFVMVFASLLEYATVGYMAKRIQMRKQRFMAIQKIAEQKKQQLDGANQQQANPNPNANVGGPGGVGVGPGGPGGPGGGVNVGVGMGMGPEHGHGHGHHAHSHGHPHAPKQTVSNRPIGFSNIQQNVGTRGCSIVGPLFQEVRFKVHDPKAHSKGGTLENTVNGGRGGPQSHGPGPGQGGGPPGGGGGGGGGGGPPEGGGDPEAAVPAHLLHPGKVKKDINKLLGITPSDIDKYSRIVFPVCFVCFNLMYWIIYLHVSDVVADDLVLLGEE
# RDL receptor F206A = RDL receptor F206A (Drosophila melanogaster, UniProt P25123, F206A); assay: GABA-induced currents in oocytes, RDL F206A; format: cell-based; conditions: Phe206 substituted with Ala, compared to WT
# RDL receptor F206Y = RDL receptor F206Y (Drosophila melanogaster, UniProt P25123, F206Y); assay: GABA-induced currents in oocytes, RDL F206Y; format: cell-based
# RDL receptor Y254A = RDL receptor Y254A (Drosophila melanogaster, UniProt P25123, Y254A); assay: GABA-induced currents in oocytes, RDL Y254A; format: cell-based; conditions: Tyr254Ala receptors, GABA up to 100 mM
# RDL receptor Y254F = RDL receptor Y254F (Drosophila melanogaster, UniProt P25123, Y254F); assay: GABA-induced currents in oocytes, RDL Y254F; format: cell-based
# RDL receptor F206Y/Y254F = RDL receptor F206Y/Y254F (Drosophila melanogaster, UniProt P25123, F206Y/Y254F); assay: GABA-induced currents in oocytes, RDL F206Y/Y254F; format: cell-based; conditions: Hill coefficient
# RDL receptor F146A = RDL receptor F146A (Drosophila melanogaster, UniProt P25123, F146A); assay: GABA-induced currents in oocytes, RDL F146A; format: cell-based
# [1] = tested on: RDL mutant (TAG) mRNA without aminoacylated tRNA; format: cell-based, Drosophila; conditions: 5 mM GABA; mutant mRNA alone or with tRNA-dCA with no amino acid attached
# RDL receptor F206-FPhe = conditions: Hill coefficient, GABA
# RDL receptor F206-F2Phe = conditions: Hill coefficient, GABA
# RDL receptor F206-F3Phe = conditions: Hill coefficient, GABA
# RDL receptor Y254-FPhe = conditions: Hill coefficient, GABA
# RDL receptor Y254F2-Phe = conditions: Hill coefficient, GABA
# RDL receptor Y254F3-Phe = conditions: Hill coefficient, GABA
# RDL receptor F146F3Phe = conditions: Hill coefficient, GABA
# GABAA receptor = conditions: GABA-activated GABAA receptor; ref Padgett et al., 2007; cited from earlier work
# GABAC receptor = conditions: GABA-activated GABAC receptor; ref Lummis et al., 2005; cited from earlier work
# RDL receptor = conditions: homomers in Xenopus oocytes; ref Zhang et al., 1994; cited from earlier work
# Chain of RDL receptor Y254F (P25123 45-606 Y254F): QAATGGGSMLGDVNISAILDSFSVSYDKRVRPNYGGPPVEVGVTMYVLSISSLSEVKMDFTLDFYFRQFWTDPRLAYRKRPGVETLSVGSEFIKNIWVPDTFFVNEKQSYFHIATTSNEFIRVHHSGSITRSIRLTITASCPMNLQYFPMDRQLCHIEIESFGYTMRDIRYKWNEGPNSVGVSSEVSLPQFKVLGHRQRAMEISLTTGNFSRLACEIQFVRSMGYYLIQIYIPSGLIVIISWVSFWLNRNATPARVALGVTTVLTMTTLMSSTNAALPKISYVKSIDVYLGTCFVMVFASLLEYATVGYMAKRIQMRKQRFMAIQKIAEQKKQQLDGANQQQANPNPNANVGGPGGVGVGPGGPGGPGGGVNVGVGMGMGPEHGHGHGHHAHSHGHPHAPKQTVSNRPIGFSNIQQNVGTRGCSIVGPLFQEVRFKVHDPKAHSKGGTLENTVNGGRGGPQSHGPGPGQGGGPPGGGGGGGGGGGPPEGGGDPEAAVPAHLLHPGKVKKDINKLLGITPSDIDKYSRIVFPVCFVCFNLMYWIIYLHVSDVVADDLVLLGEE
# Chain of RDL receptor F206Y (P25123 45-606 F206Y): as the sequence (P25123 45-606 Y254F) above, with F162Y, F210Y counted along it
# Chain of RDL receptor F146A (P25123 45-606 F146A): as the sequence (P25123 45-606 Y254F) above, with F102A, F210Y counted along it
# Chain of RDL receptor F206Y/Y254F (P25123 45-606 F206Y/Y254F): as the sequence (P25123 45-606 Y254F) above, with F162Y counted along it
# Chain of RDL receptor Y254A (P25123 45-606 Y254A): as the sequence (P25123 45-606 Y254F) above, with F210A counted along it
# Chain of RDL receptor F206A (P25123 45-606 F206A): as the sequence (P25123 45-606 Y254F) above, with F162A, F210Y counted along it
molecule,measurement,setting,value
NCCCC(=O)O [GABA],nH,RDL receptor (WT),1.4 ± 0.2
same,increase in EC50,RDL receptor F206A,~50 fold
same,nH,"RDL receptor F206Y; Hill coefficient, F206Y",2.2 ± 0.3
same,decrease in EC50 compared to WT,RDL receptor F206Y; Phe206Tyr,~200 fold
same,response to GABA,RDL receptor Y254A,did not respond
same,nH,"RDL receptor Y254F; Hill coefficient, Y254F",2.1 ± 0.4
same,increase in EC50,"RDL receptor Y254F; Tyr254 substituted with Phe, compared to WT",~4 fold
same,nH,RDL receptor F206Y/Y254F,1.9 ± 0.5
same,nH,"RDL receptor F146A; Hill coefficient, GABA, F146A",2.1 ± 0.2
same,increase in GABA EC50,"RDL receptor F146A; Phe146 substituted with Ala, compared to WT",< 4 fold
same,currents in response to GABA,[1],No currents
same,nH,RDL receptor F206-FPhe,1.8 ± 0.3
same,nH,RDL receptor F206-F2Phe,1.8 ± 0.3
same,nH,RDL receptor F206-F3Phe,2.0 ± 0.4
same,nH,RDL receptor Y254-FPhe,1.3 ± 0.4
same,nH,RDL receptor Y254F2-Phe,1.1 ± 0.2
same,nH,RDL receptor Y254F3-Phe,1.2 ± 0.3
same,nH,RDL receptor F146F3Phe,1.4 ± 0.4
same,slope of fluorination plot,GABAA receptor,0.29
same,slope of fluorination plot,GABAC receptor,0.21
picrotoxin,inhibition of RDL receptors,RDL receptor,inhibited
